Experimental data taken from patent publication US11980667B2, “Short TAT oligomers for drug delivery” (The Trustees of Columbia University in the City of New York, priority 2017, dated 2024).
“And” between values parts separate entries of the source, which are not always exact repeats. Identical values can stand only once.

Legend:
[1] = test system: 9L glioma tumors; conditions: IA-TCH, 1 mL of 0.5 mg/mL, 15 minutes
Procedure: In a separate experiment, 14 days post-implantation of 9L glioma tumors, eight rats were anesthetized and prepared for IA-TCH. Blood flow reduction for TCH was achieved by bolus IV injection of adenosine and esmolol that were flushed with cold saline. […] Animals were sacrificed 15 minutes after TAT injection. Brain tissue was harvested. Gross sections were imaged with multi-spectral imaging (MSI) system using a photon counting cooled fluorescence camera. A 490 nm light was used for excitation while 525 nm filter was used for imaging the emitted light.

[2] = test system: 9L glioma; assay: IA-TCH versus IV delivery: uptake by multi-spectral imaging of gross specimens; assay type: in vivo, rat
From the text: (§1) Comparison of […] and IV TAT delivery. Fisher 344 rats weighing about 200 g were utilized. During initial surgery under ketamine-xylazine isoflurane anesthesia 5×10^5 9 L cells were implanted 3 mm below the skull and 2-3 mm posterior and lateral to the bregma through a 1 mm craniotomy. […] The animals were assigned separately to IV and IA-TCH groups. On the day of drug delivery, animals were sedated with isoflurane and injected with ketamine/xylazine. The tail vein was cannulated for intravenous access. Under aseptic precautions, a tracheostomy and carotid cannulation were performed. Anesthesia was maintained by mechanical ventilation with isoflurane (1.8-2.2%). Thereafter animals were turned prone on a stereotactic frame. The skull was exposed and the region of tumor implantation was shaved to transparency. A laser Doppler probe was implanted on the skull with the aid of a plastic holder to assess cerebral/tumor blood flow. Rectal temperature, pulse pleth (volume), pulse oxygen saturation, EKG, expired and inspired gas composition, brain and skin blood flow with lase Doppler were continuously monitored.
(§2) Transient cerebral hypoperfusion and fluorescein-labeled TAT monomer injection. IA injections were made during TCH by the following method. Reduction of blood flow was achieved by bolus IV injections of adenosine (2 mg) and esmolol (2 mg), and cold saline (1.5 mL at 4° C.). Typically such an intervention decreases cerebral blood flow to about 20% of the baseline. The heart rate response varies from sinus bradycardia to a sinus pause. However, physiological parameters rapidly recover within 3-5 minutes. […] For each animal, a test IA injection was done prior to the onset of hypotension to ensure delivery of the desired injection volume and the injection sequence was resumed after bolus IV injections of hypotensive drugs.
Postmortem imaging. In preliminary experiments, known quantities of fluorescein-labeled TAT monomer was dissolved in intralipid and imaged using the multi-spectral imaging system. The multi-spectral imaging system contained two 470 nm light emitting diodes that evenly illuminated the test sample (Thor Labs Inc., NJ). An Evolve-512 (Photometerics Inc., Tucson, AZ) photon multiplying charge coupled device was used to image the sample through a 530 nm band pass filter. The camera is capable of performing background corrections and measuring the photon counts from the region of interest. Imaging conditions (sample, light source, and camera placements) were standardized throughout the experiment.
Immediately after sacrifice, the brains were harvested and immersed in cold saline. […] Samples were loaded on two capillary glass tubes that were placed alongside the tissue samples. Typically each specimen had 4 sections, one of which through the plane of the tumor was sent for frozen section, the remainder were placed in paraformaldehyde for paraffin blocks and histological sectioning.

[3] = test system: 9L glioma; assay: IA-TCH versus IV delivery: uptake by confocal microscopy imaging of frozen sections; assay type: in vivo, rat; conditions: n = 6
From the text: as §1, §2
Frozen sections (10 μm thick) were imaged under a Nikon confocal microscope with 470 nm excitation. Due to the large size of the tissue sample, small sections of images were obtained and then assembled together. An adjacent section was stained with hematoxylin and eosin to confirm the size and location of the tumor. The total fluorescence in the tumor region, in the non-tumor ipsi-lateral hemisphere, and in the corresponding region contra-lateral to the tumor was quantified. The contra-lateral hemisphere was used for background correction.

[4] = test system: 9L glioma tumor; assay: In vivo uptake of TAT dimer versus monomer by IA-TCH (MSI and confocal imaging); set-up: species or system rat; conditions: dimer 0.25 mg, monomer 0.125 mg, five rats each
Procedure: An additional experiment was performed to assess the in vivo uptake of fluorescein-labeled TAT dimer by IA-TCH. About 14 days after 9L glioma tumor implantation, rats were anesthetized and prepared for TAT dimer delivery experiments. TAT dimer was conjugated with fluorescein such that its concentrations in post mortem samples could be determined immediately by multispectral imaging and confocal imaging. TAT dimer (0.25 mg) and monomer (0.125 mg) were tested using IA-TCH delivery both containing equal amounts of fluorescein were evaluated. […] Animals were sacrificed 15 minutes after TAT injection. Brain tissue was harvested.

[5] = test system: C6 glioma; conditions: IA-TCH, 0.5 mg, N=3
Procedure: For in vivo tumor delivery studies, rats were implanted with C6 brain tumor cells as previously described. […] They were scarified 10 minutes later and the brains were harvested and sectioned.
Fluorescence and electron multiplying charge-coupled device imaging. Fluorescence imaging was done with a white light excitation through a 470 nm filter with central frequency. Emission was observed through a 520 nm band pass filter using a fluorescence camera (Prosilica GE™ AVI Technologies Inc.). All images were normalized to the background and to the injected FITC-TAT concentrations—a sample of which was imaged alongside in a capillary tube.

N=C(N)NCCC[C@H](NC(=O)CNC(=O)c1ccc2c(c1)C(=O)OC21c2ccc(O)cc2Oc2cc(O)ccc21)C(=O)N[C@@H](CCCCN)C(=O)N[C@@H](CCCCN)C(=O)N[C@@H](CCCNC(=N)N)C(=O)N[C@@H](CCCNC(=N)N)C(=O)N[C@@H](CCC(N)=O)C(=O)N[C@@H](CCCNC(=N)N)C(=O)N[C@@H](CCCNC(=N)N)C(=O)N[C@@H](CCCNC(=N)N)C(=O)N1CCC[C@H]1C(=O)N1CCC[C@H]1C(=O)N[C@@H](CCC(N)=O)C(=O)N[C@@H](CCC(N)=O)C(=O)O [fluorescein-labeled TAT monomer, 5-FAM-GRKKRRQRRR PPQQ-COOH]
Concentration in the tumor versus the opposite side [1]: 13 × | Uptake in the tumor compared to adjacent regions [1]: 5 × | Tumor concentration compared to brain tissue on the ipsi-lateral side ([2]; IA-TCH): 6.1 fold | Contralateral fluorescence ([2]; IA-TCH, n = 6): 0.029 ± 0.012 AU | Ipsi/contra-lateral ratio ([2]; IA-TCH, n = 6): 1.7 ± 0.5 | Ipsilateral fluorescence ([2]; IA-TCH, n = 6): 0.047 ± 0.019 AU | Tumor fluorescence ([2]; IA-TCH, n = 6): 0.277 ± 0.139 AU | Tumor/contralateral ratio ([2]; IA-TCH, n = 6): 10.1 ± 4.9 | Tumor/ipsilateral ratio ([2]; IA-TCH, n = 6): 6.1 ± 2.6 | Tumor concentration compared to brain tissue on the ipsi-lateral side ([2]; IV): 2.3 fold and 2.4 fold | Ipsi/contra-lateral ratio ([2]; IV, n = 6): 1.1 ± 0.3 | Ipsilateral fluorescence ([2]; IV, n = 6): 0.028 ± 0.005 AU | Tumor fluorescence ([2]; IV, n = 6): 0.063 ± 0.030 AU | Tumor/contralateral ratio ([2]; IV, n = 6): 2.7 ± 1.5 | Tumor/ipsilateral ratio ([2]; IV, n = 6): 2.4 ± 1.2 | Overall effectiveness of IA-TCH relative to IV ([2]; rat, in vivo): 4 × | Contralateral fluorescence ([3]; IA-TCH): 161 ± 94 AU | Ipsi-lateral fluorescence ([3]; IA-TCH): 353 ± 76 AU | Ipsi/contralateral ratio ([3]; IA-TCH): 2.7 ± 1.4 | Tumor fluorescence ([3]; IA-TCH): 1758 ± 474 AU | Tumor/contralateral ratio ([3]; IA-TCH): 13.8 ± 7.6 | Tumor/ipsi-lateral ratio ([3]; IA-TCH): 4.9 ± 0.7 | Contralateral fluorescence ([3]; IV): 205 ± 67 AU | Ipsi-lateral fluorescence ([3]; IV): 216 ± 65 AU | Ipsi/contralateral ratio ([3]; IV): 1.1 ± 0.5 | Tumor fluorescence ([3]; IV): 528 ± 246 AU | Tumor/contralateral ratio ([3]; IV): 3.0 ± 1.4 | Tumor/ipsi-lateral ratio ([3]; IV): 2.4 ± 1.1 | Tumor selective delivery [4]: able to achieve tumor selective drug delivery | Deposition in tumor (semi-quantitative fluorescence imaging) [5]: preferentially targeted to the tumor mass in all animals
